Measured values taken from patent publication US7763426B2, “Probes and methods for detection of Escheridia coli and antibiotic resistance” (priority 2004, dated 2010).
“Also recorded” adds a separate entry of the source. {Fluorescein} = fluorescein label (binding site for anti-fluorescein Fab-HRP); {Biotin} = biotin (capture probe anchor)

Experiments:
[1] = test system: 16S rRNA in lysates of uropathogens; assay: Species specificity of uropathogen probe pairs with the electrochemical sensor array (Example 1); type: binding; settings: probe pairs of Table 1
bacterial 16S rRNA = assay: Clinical validity study: UTI Chip on blinded clinical urine specimens; type: binding
Procedure: Amperometric detection of bacterial 16S rRNA. An overview of the electrochemical sensor detection strategy is presented in panel C of FIG. 1. One ml of bacteria in Luria broth, inoculated clean urine, or clinical urine samples was centrifuged at 10,000×g for 5 min. The supernatant was discarded and the bacteria were lysed by resuspension of the pellet in 10 μl of 1 M NaOH and incubation at room temperature for 5 min. In some experiments, addition of 1M NaOH was preceded by resuspension of the bacterial pellet in 10 μl of 0.1% Triton X-100, 2 mM EDTA, and 1 mg/ml lysozyme (Sigma) in 20 mM Tris-HCl, pH 8.0, and incubation at room temperature for 5 min. 50 μl of the detector probe (0.25 μM) in 2.5% bovine serum albumin (Sigma, St. Louis, Mo.) 1 M phosphate buffer, pH 7.4, were added to the bacterial lysate and incubated for 10 min at 65° C. to allow target-probe hybridization. 4 μl of the bacterial lysate/detector probe mixture was deposited on each of the working electrodes in the sensor array and incubated for 15 min at 65° C. in a humidified chamber. After washing and drying, 4 μl of 0.5 U/ml anti-fluorescein horseradish peroxidase (HRP) Fab fragments (Roche, diluted in 0.5% casein in 10 mM phosphate buffered saline, pH 7.4) were deposited on each of the working electrodes for 15 min. After washing and drying, a prefabricated plastic well manifold (GeneFluidics, Monterey Park, Calif.) was bonded to the sensor array. The sensor array was put into the chip reader (FIG. 18) and 50 μl of 3,3′,5,5′-tetramethylbenzidine (TMB), H2O2 solution (K-Blue Low Activity TMB Substrate, Neogen, Lexington, Ky.) was placed on each of the sensors in the array so as to cover all three electrodes of each sensor. Electrochemical measurements are immediately and simultaneously taken for all 16 sensors. For each array, negative control (NC) sensors were tested including the UNI capture probe, detector probe, and 2.5% bovine serum albumin (Sigma, St, Louis, Mo.) in 1 M phosphate buffer, pH 7.4, instead of bacterial lysate. The entire assay protocol was completed within 45 min from the time when bacterial lysis was commenced. Amperometric current vs. time was measured using a multichannel potentiostat (GeneFluidics). The voltage was fixed at −200 mV (vs. reference), and the electroreduction current was measured at 60 s after the HRP redox reaction reached steady state.
Clinical validity study design. Clinical urine specimens were received from routine urine cultures collected from inpatients and outpatients and submitted to the UCLA Clinical Microbiology Laboratory. Routine plating on tripticase soy agar with 5% sheep blood was performed on each specimen for phenotypic identification and colony counting while an aliquot of each specimen was held at 4° C. overnight. On the day after plating, specimens were selected for inclusion in the study on the basis of a rapid indole test for the purpose of including uropathogens other than Escherichia coli in approximately one-half of the specimens. The other half of the specimens were divided between E. coli-containing specimens and specimens determined to have ““no significant growth” or no growth” (see definitions below). Because most UTIs involve a single uropathogen, specimens determined by the clinical microbiology laboratory to have more than one organism present were excluded. Blinded specimens selected for inclusion in the study were stripped of patient identifiers and any microbiological data before delivery to the research laboratory for testing with the electrochemical sensor array.
Experiments were performed on all specimens using the 16-sensor array ‘UTI Chip’, in which the UNI, EB, EC, PM, KE, PA, and EF capture probes (defined in Tables 1 and 2) were tested in duplicate. The two remaining sensors served as negative controls (including capture and detector probes without bacterial lysate). […]

[2] = No Significant Growth specimens
[3] = specimens with Citrobacter freundii
[4] = specimens with Citrobacter koseri
[5] = specimens with Enterobacter aerogenes
[6] = specimens with Enterobacter cloacae
[7] = specimens with Enterobacteriaceae
[8] = specimens with Enterococcus species
[9] = specimens with Escherichia coli
[10] = specimens with Gram-negative bacteria
[11] = specimens with Gram-positive bacteria
[12] = specimens with Klebsiella pneumoniae
[13] = specimens with Proteus mirabilis
[14] = specimens with Pseudomonas aeruginosa
[15] = specimens with Serratia marcescens
[16] = specimens with Staph. saprophyticus

With “UNI: Universal Bacterial probe pair: capture 797 (27 mer) SEQ ID NO: 13, detector 766 (31 mer) SEQ ID NO: 14 (DNA 1 CATCGTTTACGGCGTGGACTACCAGGG; DNA 2 TATCTAATCCTGTTTGCTCCCCACGCTTTCG; DNA 1: DNA, 5' {Biotin}, backbone and methylation of C not given here; DNA 2: DNA, 5' {Fluorescein}, backbone and methylation of C not given here)” the Species detected [1] was “Cf, Ea, Ec, Ef, El, Eo, Ko, Kp,; also recorded: Mm, Pa, Pm, Ss, Sa”, the Species not detected [1] was “None” and the “sensitivity for detection of Gram-negative bacteria in clinical urine specimens” value (bacterial 16S rRNA) was 100%. For the same substance, the specificity (bacterial 16S rRNA; 10/12 no growth specimens) was 83%, the “overall sensitivity for detection of uropathogens in clinical urine specimens” value (bacterial 16S rRNA; 54/58, 0.30 log unit threshold) was 93% and the “Mean (range)” value (bacterial 16S rRNA; All specimens with bacteria) was 1.28 (0.33-1.84) log10 units over background. For the same substance, the “Positive/Total = Percent” value (bacterial 16S rRNA; All specimens with bacteria) was 54/58 = 93%, the “Mean (range)” value (bacterial 16S rRNA; No Growth specimens) was 0.38 (0.34-0.42) log10 units over background and the “Positive/Total = Percent” value (bacterial 16S rRNA; No Growth specimens) was 2/12 = 17%. For the same substance, the “Mean (range)” value (bacterial 16S rRNA; [2]) was 0.42 (0.31-0.57) log10 units over background, the “Positive/Total = Percent” value (bacterial 16S rRNA; [2]) was 5/3 = 63% and the “Mean (range)” value (bacterial 16S rRNA; [3]) was 1.49 (1.43-1.55) log10 units over background. The “Positive/Total = Percent” value (bacterial 16S rRNA; [3]) was 2/2 = 100%, the “Mean (range)” value (bacterial 16S rRNA; [4]) was 1.23 log10 units over background and the “Positive/Total = Percent” value (bacterial 16S rRNA; [4]) was 1/1 = 100%. For the same substance, the “Mean (range)” value (bacterial 16S rRNA; [5]) was 1.35 (0.93-1.65) log10 units over background, the “Positive/Total = Percent” value (bacterial 16S rRNA; [5]) was 5/5 = 100% and the “Mean (range)” value (bacterial 16S rRNA; [6]) was 1.43 log10 units over background. The “Positive/Total = Percent” value (bacterial 16S rRNA; [6]) was 1/1 = 100%, the “Mean (range)” value (bacterial 16S rRNA; [7]) was 1.32 (0.40-1.84) log10 units over background and the “Positive/Total = Percent” value (bacterial 16S rRNA; [7]) was 47/47 = 100%. For the same substance, the “Mean (range)” value (bacterial 16S rRNA; [8]) was 0.92 (0.33-1.78) log10 units over background, the “Positive/Total = Percent” value (bacterial 16S rRNA; [8]) was 5/8 = 63% and the “Mean (range)” value (bacterial 16S rRNA; [9]) was 1.30 (0.54-1.77) log10 units over background. For the same substance, the “Positive/Total = Percent” value (bacterial 16S rRNA; [9]) was 26/26 = 100%, the “Mean (range)” value (bacterial 16S rRNA; [10]) was 1.32 (0.40-1.84) log10 units over background and the “Positive/Total = Percent” value (bacterial 16S rRNA; [10]) was 48/48 = 100%. For the same substance, the “Mean (range)” value (bacterial 16S rRNA; [11]) was 0.95 (0.33-1.78) log10 units over background, the “Positive/Total = Percent” value (bacterial 16S rRNA; [11]) was 6/10 = 60% and the “Mean (range)” value (bacterial 16S rRNA; [12]) was 1.22 (0.40-1.84) log10 units over background. The “Positive/Total = Percent” value (bacterial 16S rRNA; [12]) was 8/8 = 100%, the “Mean (range)” value (bacterial 16S rRNA; [13]) was 1.41 (1.16-1.66) log10 units over background and the “Positive/Total = Percent” value (bacterial 16S rRNA; [13]) was 3/3 = 100%. For the same substance, the “Mean (range)” value (bacterial 16S rRNA; [14]) was 1.33 log10 units over background, the “Positive/Total = Percent” value (bacterial 16S rRNA; [14]) was 1/1 = 100% and the “Mean (range)” value (bacterial 16S rRNA; [15]) was 1.67 log10 units over background. For the same substance, the “Positive/Total = Percent” value (bacterial 16S rRNA; [15]) was 1/1 = 100%, the “Mean (range)” value (bacterial 16S rRNA; [16]) was 1.10 log10 units over background and the “Positive/Total = Percent” value (bacterial 16S rRNA; [16]) was 1/2 = 50%.
